Measurements from patent publication US20050239205A1, “Gb virus b based replicons and replicon enhanced cells” (priority 2002, published 2005).

Assays:
RepB replication = assay: beta-lactamase stain of bla-RepB transfected cB76.1/Huh7 cells; type: cell-based, GBV-B
Experimental: Immediately after electric pulses cells were diluted in 8 ml complete Dulbecco's Modified Eagle Medium (DMEM) and processed with different protocols depending on the selection/tracer used. In the case of neo-constructs transformation, cells were divided in 3 plates of 15 cm diameter and on the following day the selecting antibiotic G418 (Sigma G-9516) was added at a concentration of 0.250, 0.5 or 1 mg/ml. […] Surviving clones were picked-up and expanded by growing them in individual plates. When a bla reporter gene was used, 1.5 ml, 1.0 ml and 0.5 ml of transfected cells suspension were plated in each well of Multiwell-6-wells plate (Falcon cat. N. 35-3046) to be stained respectively at 24, 48 and 72 hours.
Aurora substrate system “CCF4” was used to measure β-lactamase activity. When quantitative PCR was used to measure transient replication, cells were plated 1-2×10^5/well in “6-multi-well plate”. After 3 days total RNA was purified as described in the TRIzol protocol (Life Technologies) and 10 out of 100 μl of total RNA were used in individual TaqMan reactions.
The increased efficiency of replication of RepB RNA in cB76.1/Huh7 cells compared to wild type Huh7 cells was also monitored using a colorimetric assay after transfection of RNA transcribed from bla-RepB plasmid. The bla-RepB plasmid expresses a […] marker in place of the selector neomycin phosphotransferase. […]

GBV-B virus = assay: Infection of enhanced cells with GBV-B virus-containing serum by electroporation (Taqman); type: cell-based
Experimental: GBV-B virus inoculum produced upon passage of virus in tamarins was used to infect Huh7 and cB76.1/Huh7 enhanced cells. GBV-B containing tamarin serum was layered onto 10^5 cells in multiwell-6-wells 1 day after plating at multiplicity of infection of 0.75 G.E./cell. After 6 hours adsorption, the virus-containing serum was removed, the cells extensively washed and incubated in the serum-free DMEM. Cells from individual wells were lyzed with Trizol at different times and GBV-B RNA quantified by Taqman.
As an alternative method, 10^6 cells were mixed with undiluted virus-containing serum (10^6 G.E.) and subjected to electroporation. The cells were plated at a density of 10^5/well and treated as described for experiments of RNA electroporation. Duplicate wells were run in parallel, with and without interferon. Cells from individual wells were lyzed with Trizol at different times and GBV-B RNA quantified by Taqman. The amount of G.E. detectable immediately after electroporation and wash was 10^3 G.E., it was undetectable at 24 and 48 hours, at day 3 it was 10^4 G.E.; at day 6 it was 5×10^3 (possibly inhibition due to cell density); in corresponding wells treated with interferon the RNA was undetectable. […] RNA was quantified at day 13 and 16 giving a figure corresponding to 4×10^3 G.E. and 1.2×10^4 G.E. respectively. […]

GBV-B replicon = assay: Effect of test compound on GBV-B replicon RNA in B76.1/Huh7 cells (TaqMan, neo primer set); type: cell-based
Experimental: (§1) Huh7 cell clones carrying GBV-B or HCV replicons were used to test the effect of human interferon alpha-2b. Cells (1×10^5) were plated into each well of a series of wells of Multiwell-6-wells plates (falcon cat N. 35-3046) in medium without G418. After 16 hours the medium was discarded and increasing concentrations of the test compound in fresh medium were added to each series of wells. Controls were run using the specific compound solvent at the appropriate dilution.
[…] Total RNA was purified as described in the TRizol protocol (Life Technologies). Ten out of 100 μl of total RNA were used in each reaction.
(§2) Taq Man analysis was performed using a neomycin primer set (taq NEO 1, GATGGATTGCACGCAGGTT (SEQ. ID. NO. 17), and taq NEO 5, […] (SEQ. ID. NO. 18)) and a NEO probe (1,6-carboxyfluorescein-TCCGGCCGCTTGGGT GGAG (SEQ. ID. NO. 19)-N,N,N′,N′-tetramethyl-6-carboxyrhodamine). Human GAPDH mRNA quantified with a specific primer set (PE Applied Biosystems) was used as an endogenous reference. GBV-B RNA extracted from mock-treated cells was used as a calibrator. Results from two independent experiments were analyzed using both the Comparative Ct Method and the standard curve method.
Experiments were performed using 10^5 cells of B76.1/Huh7 and 10A plated into individual wells of 6-multiwell plate and incubated overnight in the absence of G418. […]

[1] = system: GBV-B full-length genomic FL3 RNA; assay: Replication of full-length GBV-B FL3 RNA transfected in cB76.1/Huh7 enhanced cells (Taqman); type: cell-based
Source text: GBV-B RNA was quantified by a real-time 5′ exonuclease PCR (TaqMan) assay using a primer/probe set that recognized a portion of the GBV-B 5′UTR. The primers (GBV-B-F3, GTAGGCGGCGGGACTCAT (SEQ. ID. NO. 14), and GBV-B-R3, TCAGGGCCATCCAAGTCAA (SEQ. ID NO. 15)) and probe (GBV-B-P3,6-carboxyfluorescein-[…] (SEQ. ID. NO. 16)-N,N,N′,N′-tetramethyl-6-carboxyrhodamine) were selected using the Primer Express software (PE Applied Biosystems). The fluorescent probe was obtained from PE Applied Biosystems. The primers were used at 10 pmol/50 μl reaction, and the probe was used at 5 pmol/50 μl reaction.
PCR was were performed using a TaqMan Gold RT-PCR kit (PE Applied Biosystems). […]
RNA transcribed from a plasmid containing the first 2000 nucleotides of the GBV-B genome was used as a standard to establish genome equivalents. […] RNA was quantified by absorbance at 260 nm and stored at −80° C.
All reactions were run in duplicate by using the ABI Prism 7700 Sequence Detection System (PE Applied Biosystems). […] Results from two independent experiments were analyzed using both the Comparative Ct Method and the standard curve method.
GBV-B full-length genomic FL3 RNA (EMBL accession number AJ277947) was transfected in Huh7 and in enhanced cells cB76.1/Huh7 in parallel with the corresponding GAA control. Intracellular GBV-B RNA was measured by Taqman in a time-course experiment.

HCV replicon = assay: Effect of test compound on HCV replicon RNA in 10A Huh7 cells (TaqMan, neo primer set); type: cell-based; conditions: 10A cells (HCV replicon in Huh7), up to 3 days, replicon RNA normalized to GAPDH
Experimental: as §1
Cells were grown up to 3 days in the presence of compounds or compound solvent without a compound, avoiding cell confluence, and finally lysed with TRIzol. Total RNA was purified as described in the TRizol protocol (Life Technologies). Ten out of 100 μl of total RNA were used in each reaction.
as §2, with “method. […]” for “method.”

In the case of “human interferon alpha-2b [Human alpha-IFN]”, the “Number of blue cells” value (RepB replication) is reported as “reduced the number of blue cells to background levels”, the “GBV-B RNA in cells cultivated in the presence of IFN” value (GBV-B virus; after splits, points up to day 16) is reported as “background signals” and the “GBV-B RNA in treated wells” value (GBV-B virus; day 3 and day 6 after electroporation with virus-containing serum) is reported as “undetectable”. For the same substance, the “Replicon RNA after curing treatment” value (GBV-B replicon; B76.1/Huh7, 100 U/ml for 15 days in the absence of neomycin, TaqMan at end of treatment) was “disappearance of the selectable RNA replicon molecules”, the “IC50 on GBV-B replicon” value (GBV-B replicon; B76.1/Huh7 cells, up to 3 days, replicon RNA normalized to GAPDH) was 0.45 U/ml and the “Decrease of FL3 RNA amount” value ([1]; cB76.1/Huh7 transfected with FL3, day 6) was 10-20 fold. The “Effect on GAA mutant RNA amount” value ([1]; cB76.1/Huh7 transfected with mutant GAA construct, day 6) was “did not affect” and the “IC50 on HCV replicon” value (HCV replicon) was 0.58 U/ml.
